ChEMBL document CHEMBL1122681, “(Acylaryloxy)acetic acid diuretics. 5. [(2-Alkyl- and 2,2-disubstituted-1,3-dioxo-5-indanyl)oxy]acetic acids” (J Med Chem, 1984)
Values belong to the molecule of their own block, whether it stands above or below them.

Experiments:
Pan troglodytes [1] = assay: (§1) Compound was evaluated for diuretic activity in chimpanzee measured as increase in volume of urine at 1 mg/kg; format: ADME, organism-based; set-up: dose 1 mg/kg; details: in vivo
Pan troglodytes [2] = assay: Compound was evaluated for diuretic activity in chimpanzee measured as clearance of […] and urate after intra venous administration of 5 mg/kg.; format: functional, Urine
Pan troglodytes [3] = assay: (§2) Compound was evaluated for diuretic activity in chimpanzee measured as increase in the number of microequivalents of Cl- electrolyte/min at 1 mg/kg; format: functional, Urine
Pan troglodytes [4] = assay: Compound was evaluated for diuretic activity in chimpanzee measured as increase in the number of microequivalents of cl-/min at 5 mg/kg; format: functional, Urine
Pan troglodytes [5] = assay: Compound was evaluated for diuretic activity in chimpanzee measured as clearance of […] and urate after peroral administration of 5 mg/kg; format: functional, Urine; details: route oral
Pan troglodytes [6] = assay: Compound was evaluated for diuretic activity in chimpanzee measured as increase in the number of microequivalents of K+ /min at 5 mg/kg; format: functional, Urine
Pan troglodytes [7] = assay: Compound was evaluated for diuretic activity in chimpanzee measured as increase in the number of microequivalents of Na+ /min at 5 mg/kg; format: functional, Urine
Pan troglodytes [8] = assay: Compound was evaluated for diuretic activity in chimpanzee measured as increase in the number of microequivalents of K+ /min at 1 mg/kg; format: functional, Urine
Pan troglodytes [9] = assay: (§3) Compound was evaluated for diuretic activity in chimpanzee measured as increase in the number of microequivalents of Na+ /min at 1 mg/kg; format: functional, Urine
Pan troglodytes [10] = assay: Compound was evaluated for diuretic activity in chimpanzee measured as increase in volume of urine at 5 mg/kg; format: functional
Pan troglodytes [11] = assay: as §3; format: functional, Urine; remark: listed apart in the source
Pan troglodytes [12] = assay: Compound was evaluated for diuretic activity in chimpanzee measured as increase in volume of urine at 0.5 mg/kg; format: functional
Pan troglodytes [13] = assay: as §2; format: functional, Urine; remark: listed apart in the source
Pan troglodytes [14] = assay: Compound was evaluated for diuretic activity in chimpanzee measured as clearance of […] and urate after intra venous administration of 0. 5 mg/kg.; format: functional, Urine
Pan troglodytes [15] = assay: Compound was evaluated for diuretic activity in chimpanzee measured as increase in the number of microequivalents of Na+ /min at 0.5 mg/kg; format: functional, Urine
Pan troglodytes [16] = assay: Compound was evaluated for diuretic activity in chimpanzee measured as increase in the number of microequivalents of K+ /min at 0.5 mg/kg; format: functional, Urine
Pan troglodytes [17] = assay: as §1; format: functional
Rattus norvegicus [18] = assay: Compound was evaluated for diuretic activity administered orally in female rats measured as milliequivalents of K+x 100 / cage at 27 mg/kg; format: functional, Urine; details: route oral
Canis familiaris [19] = species: Canis familiaris; assay: Volume of urine in dog; format: ADME, organism-based, Canis lupus familiaris; details: in vivo
Canis familiaris [20] = assay: Compound was evaluated for diuretic activity, in female mongrel dogs by measuring volume of urine, after iv administration of 5 mg/kg (control/compound treatment results) Control = 1; format: ADME, organism-based, Canis lupus familiaris; set-up: dose 5 mg/kg, route intravenous; details: dog, in vivo
Canis familiaris [21] = assay: Compound was evaluated for diuretic activity, in female mongrel dogs by measuring amount of K+ in urine after iv administration of 5 mg/kg (control/compound treatment results) Control = 13; format: functional, Canis lupus familiaris
Rattus norvegicus [22] = assay: Compound was evaluated for diuretic activity administered orally in female rats measured as milliequivalents of Cl-x 100 / cage at 9 mg/kg; format: functional, Urine; details: route oral
[23] = volume of urine at 3 mg/kg; format: ADME, organism-based; set-up: dose 3 mg/kg; details: in vivo
Rattus norvegicus [24] = assay: Compound was evaluated for diuretic activity administered orally in female rats measured as milliequivalents of Cl-x 100 / cage at 3 mg/kg; format: functional, Urine; details: route oral
Rattus norvegicus [25] = assay: Compound was evaluated for diuretic activity administered orally in female rats measured as milliequivalents of Cl-+x 100 / cage at 27 mg/kg; format: functional, Urine; details: route oral
Rattus norvegicus [26] = assay: Compound was evaluated for diuretic activity administered orally in female rats measured as milliequivalents of Na+x 100 / cage at 27 mg/kg; format: functional, Urine; details: route oral
Rattus norvegicus [27] = assay: Compound was evaluated for diuretic activity administered orally in female rats measured as milliequivalents of K+x 100 / cage at 3 mg/kg; format: functional, Urine; details: route oral
Canis familiaris [28] = assay: Compound was evaluated for diuretic activity, administered orally in female mongrel dogs (5 mg/kg) measured as milliequivalents of Na; format: functional, Canis lupus familiaris, Urine
[29] = volume of urine at 9 mg/kg; format: ADME, organism-based; set-up: dose 9 mg/kg; details: in vivo
Rattus norvegicus [30] = assay: Compound was evaluated for diuretic activity administered orally in female rats measured as milliequivalents of K+x 100 / cage at 9 mg/kg; format: functional, Urine; details: route oral
Rattus norvegicus [31] = assay: Compound was evaluated for diuretic activity administered orally in female rats measured as milliequivalents of Cl-x 100 / cage at 81 mg/kg; format: functional, Urine; details: route oral
[32] = volume of urine at 27 mg/kg; format: ADME, organism-based; set-up: dose 27 mg/kg; details: in vivo
Canis familiaris [33] = assay: Compound was evaluated for diuretic activity, in female mongrel dogs by measuring amount of Cl- in urine after iv administration of 5 mg/kg (control/compound treatment results) Control = 6; format: functional, Canis lupus familiaris
Pan troglodytes [34] = assay: Compound was evaluated for diuretic activity in chimpanzee measured as increase in the number of microequivalents of Cl- electrolyte/min at 5 mg/kg; format: functional, Urine
Canis familiaris [35] = assay: Compound was evaluated for diuretic activity, administered orally in female mongrel dogs (5 mg/kg) measured as milliequivalents of K; format: functional, Canis lupus familiaris, Urine
Pan troglodytes [36] = assay: Compound was evaluated for diuretic activity in chimpanzee measured as clearance of […] and urate after intra venous administration of 1 mg/kg.; format: functional, Urine
Rattus norvegicus [37] = assay: Compound was evaluated for diuretic activity administered orally in female rats measured as milliequivalents of K+x 100 / cage at 81 mg/kg; format: functional, Urine; details: route oral
Rattus norvegicus [38] = assay: Compound was evaluated for diuretic activity administered orally in female rats measured as milliequivalents of Na+x 100 / cage at 3 mg/kg; format: functional, Urine; details: route oral
Canis familiaris [39] = assay: Compound was evaluated for diuretic activity, administered orally in female mongrel dogs (5 mg/kg) measured as milliequivalents of Cl-; format: functional, Canis lupus familiaris, Urine
Rattus norvegicus [40] = assay: Compound was evaluated for diuretic activity administered orally in female rats measured as milliequivalents of Na+x 100 / cage at 9 mg/kg; format: functional, Urine; details: route oral
Rattus norvegicus [41] = assay: Compound was evaluated for diuretic activity administered orally in female rats measured as milliequivalents of Na+x 100 / cage at 81 mg/kg; format: functional, Urine; details: route oral
[42] = volume of urine at 81 mg/kg; format: ADME, organism-based; set-up: dose 81 mg/kg; details: in vivo
Canis familiaris [43] = assay: Compound was evaluated for diuretic activity, in female mongrel dogs by measuring amount of Na+ in urine after iv administration of 5 mg/kg (control/compound treatment results) Control = 79; format: functional, Canis lupus familiaris

- Increase in volume (Pan troglodytes [1]): 0.1 mL/min
Compound: CCC1C(=O)c2cc(OC)c(Cl)c(Cl)c2C1=O (centres undefined)
- Delta C urate / delta C insulin (Pan troglodytes [2]): 0
- Increase (Pan troglodytes [3]): 13
- Increase (Pan troglodytes [4]): 10
- Delta C urate / delta C insulin (Pan troglodytes [5]): 0.008
- Increase (Pan troglodytes [6]): 27
- Increase (Pan troglodytes [7]): 4
- Increase (Pan troglodytes [8]): 26
- Increase (Pan troglodytes [9]): 3
- Increase in volume (Pan troglodytes [10]): 0.1 mL/min

Compound: CC1(c2ccccc2)C(=O)c2cc(OCC(=O)O)c(Cl)c(Cl)c2C1=O (centres undefined)
- Increase (Pan troglodytes [11]): 2
- Increase (Pan troglodytes [3]): 36
- Increase in volume (Pan troglodytes [12]): 0.3 mL/min
- Delta C urate / delta C insulin (Pan troglodytes [5]): 0.043
- Increase (Pan troglodytes [13]): 30
- Delta C urate / delta C insulin (Pan troglodytes [14]): 0.01
- Increase (Pan troglodytes [15]): 29
- Increase (Pan troglodytes [16]): 31
- Increase (Pan troglodytes [8]): 25
- Increase in volume (Pan troglodytes [17]): 0.6 mL/min

- Urine volume (Canis familiaris [19]): 570 mL
- Urine volume (Canis familiaris [20]): 2 mL/min
- Urine volume [23]: 27 mL
- Urine volume [29]: 26 mL
- Urine volume [32]: 33 mL
- Urine volume [42]: 38 mL
Compound: CCC1(CC)C(=O)c2cc(OCC(=O)O)c(C)c(Cl)c2C1=O
- Activity (Rattus norvegicus [18]): 62
- Activity (Canis familiaris [21]): 27 u equiv min-1
- Activity (Rattus norvegicus [22]): 124
- Activity (Rattus norvegicus [24]): 82
- Increase (Pan troglodytes [3]): 123
- Activity (Rattus norvegicus [25]): 222
- Activity (Rattus norvegicus [26]): 158
- Delta C urate / delta C insulin (Pan troglodytes [5]): 0.138
- Activity (Rattus norvegicus [27]): 29
- Activity (Canis familiaris [28]): 7
- Activity (Rattus norvegicus [30]): 43
- Activity (Rattus norvegicus [31]): 369
- Activity (Canis familiaris [33]): 157 u equiv min-1
- Increase (Pan troglodytes [6]): 132
- Increase (Pan troglodytes [7]): 290
- Increase (Pan troglodytes [34]): 285
- Activity (Canis familiaris [35]): 5
- Delta C urate / delta C insulin (Pan troglodytes [36]): 0.082
- Activity (Rattus norvegicus [37]): 106
- Activity (Rattus norvegicus [38]): 70
- Increase (Pan troglodytes [8]): 131
- Activity (Canis familiaris [39]): 10
- Activity (Rattus norvegicus [40]): 92
- Activity (Rattus norvegicus [41]): 251
- Increase in volume (Pan troglodytes [17]): 0.4 mL/min
- Increase (Pan troglodytes [9]): 25
- Increase in volume (Pan troglodytes [10]): 2.7 mL/min
- Activity (Canis familiaris [43]): 259 u equiv min-1
